Assay results published in ChEMBL document CHEMBL5120806, “Synthesis and biological evaluation of glucagon-like peptide-1 analogs with the C-terminal helix 3 of albumin-binding domain 3” (Bioorg Med Chem, 2022).
The source made the active and inactive calls. The rule behind the calls is not given here. Where a SMILES comes first, the peptide text is derived from it. [ ]: non-standard residue; d: D form. Aun = NCCCCCCCCCCC(=O)O; AEEA = NCCOCCOCC(=O)O; Aib = CC(C)(N)C(=O)O; Aoc = NCCCCCCCC(=O)O

Columns and labels:
[1] = test system: Mus musculus; assay: Antidiabetic activity in mouse assessed as decrease in AUC (0 to 24hrs) glucose level at 30 nmol/kg, sc measured after 24 hrs; assay type: functional, organism-based
[2] = biological target: T1, Glucagon-like peptide 1 receptor (Homo sapiens, UniProt P43220); assay: Binding affinity to GLP-1 receptor (unknown origin) assessed as dissociation rate constant by surface plasmon resonance analysis; conditions: filed as activator
T1 sequence (P43220 whole entry): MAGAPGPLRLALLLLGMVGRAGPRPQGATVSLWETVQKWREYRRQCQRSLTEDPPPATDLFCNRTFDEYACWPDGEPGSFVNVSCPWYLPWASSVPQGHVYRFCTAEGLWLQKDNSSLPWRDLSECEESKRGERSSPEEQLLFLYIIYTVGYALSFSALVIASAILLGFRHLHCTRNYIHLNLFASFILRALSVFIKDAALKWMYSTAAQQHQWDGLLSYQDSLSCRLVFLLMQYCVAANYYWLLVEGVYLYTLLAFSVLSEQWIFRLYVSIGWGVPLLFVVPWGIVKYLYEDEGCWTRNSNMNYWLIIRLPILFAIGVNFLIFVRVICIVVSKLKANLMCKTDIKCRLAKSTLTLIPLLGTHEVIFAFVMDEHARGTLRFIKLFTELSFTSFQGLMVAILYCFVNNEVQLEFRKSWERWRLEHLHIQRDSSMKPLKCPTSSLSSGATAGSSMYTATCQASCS

[3] = biological target: T1, Glucagon-like peptide 1 receptor; assay: Activation of GLP-1 receptor (unknown origin) expressed in CHO-K1 cells assessed as increase in cAMP accumulation by time-resolved fluorescence resonance energy transfer immunoassay; assay type: functional, cell-based
[4] = test system: Mus musculus; assay: Antidiabetic activity in mouse assessed as decrease in blood glucose level at 30 nmol/kg, sc measured after 24 hrs; assay type: functional, organism-based
[5] = biological target: T1, Glucagon-like peptide 1 receptor; assay: Binding affinity to GLP-1 receptor (unknown origin) assessed as binding rate constant by surface plasmon resonance analysis; conditions: filed as activator
[6] = biological target: T1, Glucagon-like peptide 1 receptor; assay: Binding affinity to GLP-1 receptor (unknown origin) assessed as equlibrium constant by surface plasmon resonance analysis
[7] = biological target: Albumin (Homo sapiens, UniProt P02768); assay: Binding affinity to albumin (unknown origin) by HPLC analysis
Chain of Albumin (P02768 whole entry): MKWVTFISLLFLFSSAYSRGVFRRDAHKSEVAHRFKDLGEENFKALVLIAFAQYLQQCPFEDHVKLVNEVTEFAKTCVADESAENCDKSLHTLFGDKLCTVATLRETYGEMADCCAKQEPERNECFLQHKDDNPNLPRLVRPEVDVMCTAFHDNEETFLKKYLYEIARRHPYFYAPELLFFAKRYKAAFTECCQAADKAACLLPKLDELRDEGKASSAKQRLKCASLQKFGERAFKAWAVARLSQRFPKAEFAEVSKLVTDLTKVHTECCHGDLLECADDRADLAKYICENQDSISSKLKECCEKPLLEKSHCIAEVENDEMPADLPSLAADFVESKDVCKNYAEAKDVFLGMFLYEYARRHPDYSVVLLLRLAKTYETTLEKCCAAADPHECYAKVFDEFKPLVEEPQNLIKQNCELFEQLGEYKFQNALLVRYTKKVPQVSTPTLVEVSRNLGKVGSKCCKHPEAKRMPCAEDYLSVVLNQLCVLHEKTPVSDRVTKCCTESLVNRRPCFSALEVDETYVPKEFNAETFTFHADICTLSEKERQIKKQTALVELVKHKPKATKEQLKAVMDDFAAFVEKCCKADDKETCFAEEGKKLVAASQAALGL

[8] = test system: Mus musculus; assay: Antidiabetic activity in mouse assessed as decrease in body weight at 30 nmol/kg, sc measured after 24 hrs; assay type: functional, organism-based
[9] = biological target: T2, Glucagon-like peptide 1 receptor (Rattus norvegicus) (UniProt P32301); assay: Activation of GLP-1 receptor in rat INS-1 cells assessed as cAMP accumulation at 10 nmol/L time-resolved fluorescence resonance energy transfer immunoassay; assay type: functional, cell-based; conditions: INS1, filed as activator
T2 sequence (whole entry): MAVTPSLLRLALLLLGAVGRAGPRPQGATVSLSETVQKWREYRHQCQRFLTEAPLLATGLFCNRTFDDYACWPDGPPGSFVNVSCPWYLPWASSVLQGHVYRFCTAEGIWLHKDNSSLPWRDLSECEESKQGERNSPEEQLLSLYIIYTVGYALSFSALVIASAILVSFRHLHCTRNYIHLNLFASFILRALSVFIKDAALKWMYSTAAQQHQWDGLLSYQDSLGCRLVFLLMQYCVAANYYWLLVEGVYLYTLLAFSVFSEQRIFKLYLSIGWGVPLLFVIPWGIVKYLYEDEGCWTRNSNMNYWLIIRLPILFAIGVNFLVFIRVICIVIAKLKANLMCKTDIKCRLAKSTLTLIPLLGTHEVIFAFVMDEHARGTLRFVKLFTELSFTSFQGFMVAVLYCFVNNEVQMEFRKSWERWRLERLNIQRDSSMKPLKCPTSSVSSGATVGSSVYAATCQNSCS

Row | Compound | Kdiss [2] | EC50 [3] [nM] | Ka [5] | Kd [6] [nM] | Activity [7] [%] | Activity [9] | Activity [1] | Activity [4] | Activity [8]
1 | SEMAGLUTIDE [listing 1 of 2 here] | 3.2 10^-2/s |  | 7.26 10^4/Ms |  |  |  | Active | Active | 
2 | H-[Aib]EGTFTSDVSSYLEGQAAKEFIAWLVKG[AEEA]GVKALIDEILAA-NH2 | 1.94 10^-2/s | 0.132 | 1.95 10^4/Ms | 994 | 75.4 |  |  | Active | 
3 | SEMAGLUTIDE [listing 2 of 2 here] |  |  |  |  | > 99 |  |  |  | 
4 | H-[Aib]EGTFTSDVSSYLEGQAAKEFIAWLVKG[Aoc][AEEA]GVKALIDEILAA-NH2 | 1.65 10^-2/s | 0.135 | 3.11 10^4/Ms | 532 | 66.5 |  | Active | Active | 
5 | H-[Aib]EGTFTSDVSSYLEGQAAKEFIAWLVKG[Aoc]GVKALIDEILAA-NH2 | 1.41 10^-2/s | 0.204 | 2.01 10^4/Ms | 700 | 77.4 |  | Active | Active | 

Now from value to compound, other results behind:

Row | Kdiss [2] | EC50 [3] [nM] | Ka [5] | Kd [6] [nM] | Activity [7] [%] | Activity [9] | Compound | Activity [1] | Activity [4] | Activity [8]
6 | 3.25 10^-2/s | 0.17 | 3.57 10^4/Ms | 912 | 65.6 |  | H-[Aib]EGTFTSDVSSYLEGQAAKEFIAWLVKG[AEEA][AEEA]GVKALIDEILAA-NH2 | Active | Active | 
7 | 1.97 10^-2/s | 0.158 | 1.32 10^4/Ms | 1490 | 76.4 |  | H-[Aib]EGTFTSDVSSYLEGQAAKEFIAWLVKG[Aun][AEEA]GVKALIDEILAA-NH2 | Active | Active | Active
8 | 1.1 10^-2/s | 0.209 | 7.53 10^3(1/Ms) | 1460 | 89.2 | Active | H-[Aib]EGTFTSDVSSYLEGQAAKEFIAWLVKG[Aun]GVKALIDEILAA-NH2 | Active | Active | Active
9 | 1.12 10^-2/s | 0.0651 | 2.99 10^3(1/Ms) | 3750 | 86.2 | Active | CC[C@H](C)[C@H](NC(=O)[C@H](Cc1ccccc1)NC(=O)[C@H](CCC(=O)O)NC(=O)[C@H](CCCCN)NC(=O)[C@H](C)NC(=O)[C@H](C)NC(=O)[C@H](CCC(N)=O)NC(=O)CNC(=O)[C@H](CCC(=O)O)NC(=O)[C@H](CC(C)C)NC(=O)[C@H](Cc1ccc(O)cc1)NC(=O)[C@H](CO)NC(=O)[C@H](CO)NC(=O)[C@@H](NC(=O)[C@H](CC(=O)O)NC(=O)[C@H](CO)NC(=O)[C@@H](NC(=O)[C@H](Cc1ccccc1)NC(=O)[C@@H](NC(=O)CNC(=O)[C@H](CCC(=O)O)NC(=O)C(C)(C)N)[C@@H](C)O)[C@@H](C)O)C(C)C)C(=O)N[C@@H](C)C(=O)N[C@@H](Cc1c[nH]c2ccccc12)C(=O)N[C@@H](CC(C)C)C(=O)N[C@H](C(=O)N[C@@H](CCCCN)C(=O)NCC(=O)NCC(=O)N[C@H](C(=O)N[C@@H](CCCCN)C(=O)N[C@@H](C)C(=O)N[C@@H](CC(C)C)C(=O)N[C@H](C(=O)N[C@@H](CC(=O)O)C(=O)N[C@@H](CCC(=O)O)C(=O)N[C@H](C(=O)N[C@@H](CC(C)C)C(=O)N[C@@H](C)C(=O)N[C@@H](C)C(N)=O)[C@@H](C)CC)[C@@H](C)CC)C(C)C)C(C)C (H-[Aib]EGTFTSDVSSYLEGQAAKEFIAWLVKGGVKALIDEILAA-NH2) | Active | Active | Active
